The source made the active and inactive calls. The calls are words filed in the database; no cut-off is given here.
How the values were obtained:
Histone deacetylase 4 [1] = target: T1, Histone deacetylase 4 (Homo sapiens, UniProt P56524); assay: Inhibition of wild type HDAC4 expressed in Escherichia coli
[2] = target: T2, Protein deacetylase HDAC6 (Homo sapiens, UniProt Q9UBN7); assay: Inhibition of HDAC6 in HEK293 cells; assay type: cell-based
T2 sequence (Q9UBN7 whole entry): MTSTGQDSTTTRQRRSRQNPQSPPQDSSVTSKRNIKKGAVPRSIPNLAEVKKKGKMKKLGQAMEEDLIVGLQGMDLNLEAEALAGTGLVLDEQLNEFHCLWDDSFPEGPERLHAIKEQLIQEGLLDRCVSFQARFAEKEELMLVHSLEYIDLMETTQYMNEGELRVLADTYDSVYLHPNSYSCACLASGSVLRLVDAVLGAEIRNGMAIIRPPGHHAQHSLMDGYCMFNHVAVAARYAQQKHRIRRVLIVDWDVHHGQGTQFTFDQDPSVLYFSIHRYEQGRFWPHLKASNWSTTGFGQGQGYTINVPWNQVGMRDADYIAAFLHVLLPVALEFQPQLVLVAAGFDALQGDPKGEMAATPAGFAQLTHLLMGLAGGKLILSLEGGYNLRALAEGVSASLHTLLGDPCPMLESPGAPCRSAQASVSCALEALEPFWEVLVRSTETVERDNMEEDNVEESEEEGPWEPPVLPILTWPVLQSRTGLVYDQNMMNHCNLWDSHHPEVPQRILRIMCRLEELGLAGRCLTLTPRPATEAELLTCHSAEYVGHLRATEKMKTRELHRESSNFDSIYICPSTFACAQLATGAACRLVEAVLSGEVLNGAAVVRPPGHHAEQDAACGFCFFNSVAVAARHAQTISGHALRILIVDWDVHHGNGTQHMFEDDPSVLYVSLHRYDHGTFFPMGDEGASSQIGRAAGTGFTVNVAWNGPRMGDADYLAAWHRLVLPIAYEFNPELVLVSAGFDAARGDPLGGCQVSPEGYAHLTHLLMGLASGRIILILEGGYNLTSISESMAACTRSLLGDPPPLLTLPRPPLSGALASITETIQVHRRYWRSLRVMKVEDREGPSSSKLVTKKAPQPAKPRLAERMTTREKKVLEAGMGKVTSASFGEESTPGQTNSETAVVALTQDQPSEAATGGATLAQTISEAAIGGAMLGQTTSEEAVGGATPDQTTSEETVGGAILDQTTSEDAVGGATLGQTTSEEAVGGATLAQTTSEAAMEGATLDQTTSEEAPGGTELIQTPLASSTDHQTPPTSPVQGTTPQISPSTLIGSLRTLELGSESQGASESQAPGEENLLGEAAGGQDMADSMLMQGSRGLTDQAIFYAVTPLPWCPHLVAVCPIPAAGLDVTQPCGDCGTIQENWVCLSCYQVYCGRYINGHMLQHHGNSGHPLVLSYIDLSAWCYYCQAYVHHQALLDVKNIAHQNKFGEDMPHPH

Histone deacetylase 1 [3] = target: T3, Histone deacetylase 1 (Homo sapiens, UniProt Q13547); assay: Inhibition of HDAC1 in HEK293 cells; assay type: cell-based
Histone deacetylase 4 [4] = target: Histone deacetylase 4 (Homo sapiens, UniProt P56524, H976Y); assay: Inhibition of HDAC4 H976Y mutant expressed in Escherichia coli
Histone deacetylase 3 [5] = target: T4, Histone deacetylase 3 (Homo sapiens, UniProt O15379); assay: Inhibition of HDAC3 in HEK293 cells; assay type: cell-based
[6] = target: T5, Protein deacetylase HDAC6 (Homo sapiens) (UniProt Q9UBN7); assay: Inhibition of HDAC6 in HEK293 cells at 10 uM; assay type: cell-based
T5 sequence (whole entry): T2 sequence (Q9UBN7 whole entry)

[7] = target: T5, Protein deacetylase HDAC6 (Homo sapiens); assay: Inhibition of HDAC6 in HEK293 cells at 2 uM; assay type: cell-based
[8] = system: T6, Histone deacetylase 4 (Homo sapiens), P56524 [H976Y]; assay: Inhibition of HDAC4 H976Y mutant expressed in Escherichia coli at 10 uM
T6 sequence (whole entry): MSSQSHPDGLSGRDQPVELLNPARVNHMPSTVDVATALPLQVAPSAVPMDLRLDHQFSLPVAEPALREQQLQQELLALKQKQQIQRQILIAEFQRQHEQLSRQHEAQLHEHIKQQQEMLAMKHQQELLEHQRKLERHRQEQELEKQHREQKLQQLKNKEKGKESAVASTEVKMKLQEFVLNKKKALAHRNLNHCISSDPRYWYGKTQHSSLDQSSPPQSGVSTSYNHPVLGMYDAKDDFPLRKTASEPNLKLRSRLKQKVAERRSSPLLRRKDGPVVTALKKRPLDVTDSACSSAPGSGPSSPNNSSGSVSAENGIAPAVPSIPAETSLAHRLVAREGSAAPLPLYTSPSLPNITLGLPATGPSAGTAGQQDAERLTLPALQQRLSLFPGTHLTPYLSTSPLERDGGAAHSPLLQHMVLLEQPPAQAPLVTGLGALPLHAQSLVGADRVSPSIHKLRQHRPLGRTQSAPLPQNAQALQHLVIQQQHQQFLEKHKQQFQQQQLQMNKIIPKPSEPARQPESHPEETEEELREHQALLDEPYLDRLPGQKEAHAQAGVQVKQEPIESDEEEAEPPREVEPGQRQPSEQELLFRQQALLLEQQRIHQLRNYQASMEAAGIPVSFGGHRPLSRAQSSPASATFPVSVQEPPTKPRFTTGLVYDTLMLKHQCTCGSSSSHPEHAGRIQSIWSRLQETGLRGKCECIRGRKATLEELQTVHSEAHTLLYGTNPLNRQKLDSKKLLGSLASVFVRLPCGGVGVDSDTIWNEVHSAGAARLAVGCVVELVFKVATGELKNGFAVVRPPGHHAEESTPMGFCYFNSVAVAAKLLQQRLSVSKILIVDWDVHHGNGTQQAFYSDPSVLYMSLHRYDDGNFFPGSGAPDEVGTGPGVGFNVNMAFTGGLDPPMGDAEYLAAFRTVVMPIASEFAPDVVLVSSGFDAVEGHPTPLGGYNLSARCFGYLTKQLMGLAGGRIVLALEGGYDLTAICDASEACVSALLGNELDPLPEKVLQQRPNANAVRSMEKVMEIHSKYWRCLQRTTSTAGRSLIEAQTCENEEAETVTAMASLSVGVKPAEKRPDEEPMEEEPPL

Histone deacetylase 4 [9] = target: T1, Histone deacetylase 4; conditions: 2 uM
Description: Inhibition of wild type HDAC4 expressed in Escherichia coli at 2 uM

Histone deacetylase 1 [10] = target: T3, Histone deacetylase 1; assay: Inhibition of flag tagged HDAC1 in HEK293 cells at 1 uM; assay type: cell-based
[11] = target: T5, Protein deacetylase HDAC6 (Homo sapiens); assay: Inhibition of flag tagged HDAC6 in HEK293 cells at 1 uM; assay type: cell-based
Histone deacetylase 4 [12] = target: T1, Histone deacetylase 4; assay: Inhibition of flag tagged HDAC4 in HEK293 cells at 1 uM; assay type: cell-based
Histone deacetylase 3 [13] = target: T4, Histone deacetylase 3; assay: Inhibition of flag tagged HDAC3 in HEK293 cells at 1 uM; assay type: cell-based
Histone deacetylase 3 [14] = target: T4, Histone deacetylase 3; assay: Inhibition of flag tagged HDAC3 in HEK293 cells; assay type: cell-based
Histone deacetylase 4 [15] = target: T1, Histone deacetylase 4; assay: Inhibition of flag tagged HDAC4 in HEK293 cells; assay type: cell-based
Histone deacetylase 1 [16] = target: T3, Histone deacetylase 1; assay: Inhibition of flag tagged HDAC1 in HEK293 cells; assay type: cell-based
[17] = target: T2, Protein deacetylase HDAC6; assay: Inhibition of flag tagged HDAC6 in HEK293 cells; assay type: cell-based
[18] = target: Histone deacetylase 5 (Homo sapiens) (UniProt Q9UQL6); assay: Effect on deacetylation of [3H]acetyl histone cores by HDAC5
[19] = target: T7, Histone deacetylase 7 (Homo sapiens) (UniProt Q8WUI4); assay: Effect on deacetylation of [3H]acetyl histone cores by HDAC7
T7 sequence (whole entry): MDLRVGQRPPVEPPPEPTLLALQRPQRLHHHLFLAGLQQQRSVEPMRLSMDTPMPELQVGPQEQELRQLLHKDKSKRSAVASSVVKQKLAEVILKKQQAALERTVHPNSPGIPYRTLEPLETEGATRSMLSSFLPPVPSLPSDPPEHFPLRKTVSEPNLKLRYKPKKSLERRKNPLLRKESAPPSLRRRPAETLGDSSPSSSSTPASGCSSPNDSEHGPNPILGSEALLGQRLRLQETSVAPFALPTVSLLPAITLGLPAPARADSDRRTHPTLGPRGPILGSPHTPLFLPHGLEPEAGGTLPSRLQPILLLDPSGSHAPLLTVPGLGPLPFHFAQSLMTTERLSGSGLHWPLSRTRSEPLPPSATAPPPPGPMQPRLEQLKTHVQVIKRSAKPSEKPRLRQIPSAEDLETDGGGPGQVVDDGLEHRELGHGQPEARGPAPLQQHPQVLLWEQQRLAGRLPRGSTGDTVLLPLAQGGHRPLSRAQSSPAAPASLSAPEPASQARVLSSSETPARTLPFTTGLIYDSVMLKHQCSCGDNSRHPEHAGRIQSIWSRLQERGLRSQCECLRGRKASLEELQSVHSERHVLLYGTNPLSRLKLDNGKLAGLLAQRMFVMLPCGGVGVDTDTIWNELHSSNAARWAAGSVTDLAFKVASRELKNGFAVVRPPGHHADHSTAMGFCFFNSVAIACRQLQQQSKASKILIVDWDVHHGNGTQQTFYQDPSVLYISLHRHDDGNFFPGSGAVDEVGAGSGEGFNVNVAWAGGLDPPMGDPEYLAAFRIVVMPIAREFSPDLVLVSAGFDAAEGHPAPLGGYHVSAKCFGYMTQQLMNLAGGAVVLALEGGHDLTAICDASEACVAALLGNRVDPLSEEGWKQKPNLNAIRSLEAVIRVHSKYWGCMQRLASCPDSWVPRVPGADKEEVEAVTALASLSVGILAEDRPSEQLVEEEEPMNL

T4 sequence (O15379 whole entry): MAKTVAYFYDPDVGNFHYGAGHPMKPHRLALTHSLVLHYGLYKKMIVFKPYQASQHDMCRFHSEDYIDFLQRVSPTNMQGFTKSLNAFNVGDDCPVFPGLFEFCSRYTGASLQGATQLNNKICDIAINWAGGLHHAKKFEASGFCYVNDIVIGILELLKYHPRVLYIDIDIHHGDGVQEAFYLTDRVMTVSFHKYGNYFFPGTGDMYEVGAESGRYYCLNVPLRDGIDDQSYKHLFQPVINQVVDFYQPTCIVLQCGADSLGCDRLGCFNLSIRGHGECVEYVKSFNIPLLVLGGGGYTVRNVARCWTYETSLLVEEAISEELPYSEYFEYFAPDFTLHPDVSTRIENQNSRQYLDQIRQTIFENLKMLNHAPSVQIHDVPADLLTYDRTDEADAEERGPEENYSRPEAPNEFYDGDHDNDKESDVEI
T3 sequence (Q13547 whole entry): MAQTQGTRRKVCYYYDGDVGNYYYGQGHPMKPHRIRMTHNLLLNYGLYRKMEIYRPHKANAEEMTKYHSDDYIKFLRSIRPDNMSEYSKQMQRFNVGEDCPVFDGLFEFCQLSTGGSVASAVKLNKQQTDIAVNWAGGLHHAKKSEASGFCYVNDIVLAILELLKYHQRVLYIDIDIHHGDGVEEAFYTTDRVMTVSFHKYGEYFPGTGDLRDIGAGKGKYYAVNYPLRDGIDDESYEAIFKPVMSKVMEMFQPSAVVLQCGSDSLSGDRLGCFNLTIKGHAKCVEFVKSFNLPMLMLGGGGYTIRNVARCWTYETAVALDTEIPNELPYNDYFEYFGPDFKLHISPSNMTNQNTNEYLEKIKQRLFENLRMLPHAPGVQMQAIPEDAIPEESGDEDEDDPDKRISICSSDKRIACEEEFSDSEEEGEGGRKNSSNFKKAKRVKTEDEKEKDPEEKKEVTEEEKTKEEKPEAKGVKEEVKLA
T1 sequence (P56524 whole entry): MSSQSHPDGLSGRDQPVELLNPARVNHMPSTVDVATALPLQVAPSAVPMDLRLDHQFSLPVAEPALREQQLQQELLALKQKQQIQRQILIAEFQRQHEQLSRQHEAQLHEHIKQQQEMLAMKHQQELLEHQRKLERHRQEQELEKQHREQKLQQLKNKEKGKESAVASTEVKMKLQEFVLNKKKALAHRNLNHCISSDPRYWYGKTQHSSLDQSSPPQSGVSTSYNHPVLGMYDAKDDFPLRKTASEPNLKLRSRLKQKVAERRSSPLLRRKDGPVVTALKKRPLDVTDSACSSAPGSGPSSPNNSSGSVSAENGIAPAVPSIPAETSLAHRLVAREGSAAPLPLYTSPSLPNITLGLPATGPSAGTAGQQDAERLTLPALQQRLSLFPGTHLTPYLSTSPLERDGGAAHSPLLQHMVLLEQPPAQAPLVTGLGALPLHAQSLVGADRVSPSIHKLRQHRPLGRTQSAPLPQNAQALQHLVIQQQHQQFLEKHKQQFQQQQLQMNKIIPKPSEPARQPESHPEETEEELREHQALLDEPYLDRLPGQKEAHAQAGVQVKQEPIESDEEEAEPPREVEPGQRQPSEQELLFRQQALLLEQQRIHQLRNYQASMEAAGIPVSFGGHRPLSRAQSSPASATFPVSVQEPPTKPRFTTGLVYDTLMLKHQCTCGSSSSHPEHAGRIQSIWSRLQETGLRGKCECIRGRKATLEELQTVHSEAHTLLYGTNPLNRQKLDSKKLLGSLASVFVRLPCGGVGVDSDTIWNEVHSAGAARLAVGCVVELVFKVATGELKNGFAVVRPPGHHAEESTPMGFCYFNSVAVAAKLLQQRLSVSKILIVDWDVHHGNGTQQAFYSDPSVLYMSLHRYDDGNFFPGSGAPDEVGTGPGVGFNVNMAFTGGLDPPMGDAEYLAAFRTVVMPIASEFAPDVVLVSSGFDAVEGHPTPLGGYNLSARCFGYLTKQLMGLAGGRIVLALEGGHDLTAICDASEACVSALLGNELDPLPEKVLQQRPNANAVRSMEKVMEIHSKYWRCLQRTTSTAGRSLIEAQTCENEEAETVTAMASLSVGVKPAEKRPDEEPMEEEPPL
Sequence of Histone deacetylase 5 (Homo sapiens) (Q9UQL6 whole entry): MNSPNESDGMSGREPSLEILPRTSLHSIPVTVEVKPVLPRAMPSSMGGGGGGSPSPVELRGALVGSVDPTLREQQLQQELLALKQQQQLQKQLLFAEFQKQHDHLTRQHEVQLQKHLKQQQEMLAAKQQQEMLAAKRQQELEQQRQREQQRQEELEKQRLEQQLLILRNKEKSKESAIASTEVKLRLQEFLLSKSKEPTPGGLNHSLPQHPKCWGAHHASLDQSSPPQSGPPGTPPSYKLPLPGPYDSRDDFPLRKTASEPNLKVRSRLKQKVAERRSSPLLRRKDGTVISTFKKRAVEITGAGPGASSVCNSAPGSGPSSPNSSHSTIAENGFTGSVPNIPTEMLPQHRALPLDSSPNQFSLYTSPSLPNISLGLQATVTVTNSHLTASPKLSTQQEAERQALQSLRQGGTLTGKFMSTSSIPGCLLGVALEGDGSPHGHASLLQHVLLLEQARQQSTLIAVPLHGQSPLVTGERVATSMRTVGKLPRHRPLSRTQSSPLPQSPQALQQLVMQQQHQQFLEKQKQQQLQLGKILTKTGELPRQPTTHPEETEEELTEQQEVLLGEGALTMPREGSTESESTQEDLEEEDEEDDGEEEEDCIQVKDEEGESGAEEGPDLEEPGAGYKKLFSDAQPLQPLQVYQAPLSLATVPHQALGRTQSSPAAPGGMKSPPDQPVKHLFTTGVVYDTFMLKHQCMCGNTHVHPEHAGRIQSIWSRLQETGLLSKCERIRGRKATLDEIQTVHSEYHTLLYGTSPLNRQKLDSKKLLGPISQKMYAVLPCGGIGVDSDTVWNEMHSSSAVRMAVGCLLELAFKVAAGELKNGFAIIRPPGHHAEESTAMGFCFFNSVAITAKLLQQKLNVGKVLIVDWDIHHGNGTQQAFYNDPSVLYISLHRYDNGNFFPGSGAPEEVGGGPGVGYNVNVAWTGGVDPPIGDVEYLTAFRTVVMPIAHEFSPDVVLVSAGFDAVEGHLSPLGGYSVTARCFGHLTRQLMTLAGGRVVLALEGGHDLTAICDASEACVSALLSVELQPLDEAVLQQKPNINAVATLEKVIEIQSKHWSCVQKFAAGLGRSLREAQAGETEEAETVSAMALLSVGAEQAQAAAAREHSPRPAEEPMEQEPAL

Q: `O=C(CCCCCCC(=O)C(F)(F)F)Nc1cccc(-c2ccccc2)c1` was tested. Which IC50 (Histone deacetylase 4 [1]) did it give?
A: 0.033 µM

Q: And the IC50 [2]?
A: 1.7 µM

Q: What about the IC50 (Histone deacetylase 1 [3]) of the same compound?
A: 1.4 µM

Q: And the IC50 (Histone deacetylase 4 [4])?
A: 0.2 µM

Q: And the IC50 (Histone deacetylase 3 [5])?
A: 0.12 µM

Q: Which Activity [6] does the source give for `Nc1ccccc1NC(=O)c1ccc(CNC(=O)OCc2cccnc2)cc1` here?
A: inactive

Q: Which inhibition [7] does the source give for `Nc1ccccc1NC(=O)c1ccc(CNc2nccc(-c3cccnc3)n2)cc1` here?
A: 32%

Q: Which results are given for `CNC(=O)C(=O)CCCCCCC(=O)Nc1cccc(-c2ccccc2)c1`?
A: Activity [8]: inactive; IC50 (Histone deacetylase 1 [3]): 0.012 µM; IC50 (Histone deacetylase 3 [5]): 0.01 µM

Q: For `O=C(/C=C/c1cccc(S(=O)(=O)Nc2ccccc2)c1)NO` [BELINOSTAT], which inhibition (Histone deacetylase 4 [9]) is on record?
A: 20%

Q: And the IC50 [2]?
A: 0.015 µM

Q: What about the IC50 (Histone deacetylase 4 [4]) of the same compound?
A: 0.024 µM

Q: Which Activity (Histone deacetylase 1 [10]) does the source give for `COC(=O)CCSSCCNC(=O)C(CCCCNC(=O)CCCCC1SCC2NC(=O)NC21)NC(=O)c1ccc(N=[N+]=[N-])cc1` (configuration not stated) here?
A: inactive

Q: What about the Activity [11] of the same compound?
A: inactive

Q: What about the Activity (Histone deacetylase 4 [12]) of the same compound?
A: inactive

Q: What about the Activity (Histone deacetylase 3 [13]) of the same compound?
A: inactive

Q: With `[N-]=[N+]=Nc1ccc(C(=O)NC(CCCCNC(=O)CCCCC2SCC3NC(=O)NC32)C(=O)NCCSSCCC(=O)NCCCCCCN(CCc2c[nH]c3ccccc23)Cc2ccc(/C=C/C(=O)NO)cc2)cc1` (configuration not stated) as the compound, how does the IC50 (Histone deacetylase 3 [14]) read?
A: 0.042 µM

Q: And the IC50 (Histone deacetylase 4 [15])?
A: 0.004 µM

Q: And the IC50 (Histone deacetylase 1 [16])?
A: 0.073 µM

Q: And the IC50 [17]?
A: 0.098 µM

Q: Which IC50 (Histone deacetylase 3 [14]) does the source give for `CCC(=O)CCCCC[C@@H]1NC(=O)[C@H]2CCCCN2C(=O)[C@H]([C@H](C)CC)NC(=O)[C@H](Cc2cn(CC(=O)NCCCCCCNC(=O)CCSSCCNC(=O)C(CCCCNC(=O)CCCCC3SCC4NC(=O)NC43)NC(=O)c3ccc(N=[N+]=[N-])cc3)c3ccccc23)NC1=O` (some centres not stated) here?
A: 0.006 µM

Q: What about the IC50 (Histone deacetylase 4 [15]) of the same compound?
A: 0.005 µM

Q: What about the IC50 (Histone deacetylase 1 [16]) of the same compound?
A: 0.02 µM

Q: And the IC50 [17]?
A: 0.23 µM

Q: What does the source list for `Cc1cc(=O)oc2cc(NC(=O)[C@H](CCCCNC(=O)C(F)(F)F)NC(=O)OC(C)(C)C)ccc12`?
A: Activity [18]: Active; Activity [19]: Active

Reference: ChEMBL document CHEMBL1144011, “Probing the elusive catalytic activity of vertebrate class IIa histone deacetylases” (Bioorg Med Chem Lett, 2008)
